Measured values taken from ChEMBL document CHEMBL4725307, “Topical 'dual-soft' glucocorticoid receptor agonist for dermatology” (Bioorg Med Chem Lett, 2020).

How the values were obtained:
[1] = Half life in human whole blood; assay type: ADME, tissue-based
Glucocorticoid receptor = molecular target: T1, Glucocorticoid receptor (Homo sapiens, UniProt P04150); experiment: Agonist activity at human glucocorticoid receptor in PBMC assessed as inhibition of LPS-induced TNFalpha release; assay type: tissue-based
T1 sequence (P04150 whole entry): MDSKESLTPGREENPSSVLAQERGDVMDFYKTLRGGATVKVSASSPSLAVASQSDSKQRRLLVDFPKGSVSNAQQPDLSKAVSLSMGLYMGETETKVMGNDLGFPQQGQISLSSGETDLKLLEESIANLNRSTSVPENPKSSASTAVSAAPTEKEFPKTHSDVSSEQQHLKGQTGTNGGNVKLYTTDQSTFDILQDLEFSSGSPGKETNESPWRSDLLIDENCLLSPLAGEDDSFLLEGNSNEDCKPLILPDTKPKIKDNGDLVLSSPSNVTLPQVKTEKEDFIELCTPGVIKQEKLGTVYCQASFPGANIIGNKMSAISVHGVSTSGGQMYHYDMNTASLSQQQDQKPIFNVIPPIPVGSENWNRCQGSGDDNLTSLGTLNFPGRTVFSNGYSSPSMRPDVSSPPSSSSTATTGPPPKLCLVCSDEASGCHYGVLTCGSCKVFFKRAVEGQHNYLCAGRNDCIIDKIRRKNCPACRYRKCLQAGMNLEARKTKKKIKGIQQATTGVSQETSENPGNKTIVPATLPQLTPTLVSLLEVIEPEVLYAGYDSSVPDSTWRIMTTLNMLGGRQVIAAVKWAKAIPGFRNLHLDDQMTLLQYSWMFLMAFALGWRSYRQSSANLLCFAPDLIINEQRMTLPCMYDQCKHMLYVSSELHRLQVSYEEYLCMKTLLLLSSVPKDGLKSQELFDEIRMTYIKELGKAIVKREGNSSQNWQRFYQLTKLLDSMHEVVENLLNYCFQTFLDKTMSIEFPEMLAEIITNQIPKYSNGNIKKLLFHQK

[2] = Half life in cultured human keratinocytes; assay type: ADME, cell-based, Keratinocyte
[3] = molecular target: T2, Glucocorticoid receptor (Homo sapiens) (UniProt P04150); experiment: Agonist activity at human glucocorticoid receptor assessed as inhibition of LPS-induced TNFalpha release in PBMC relative to control; assay type: tissue-based
T2 sequence (whole entry): T1 sequence (P04150 whole entry)

[4] = Drug metabolism in pig hepatocytes assessed as (3R)-3-(hydroxymethyl)-4-oxo-4-[(3S)-3-[[5-[(1R,2S)-1-(p-tolyl)-2-[(2,2,2-trifluoroacetyl)amino]propoxy]pyridine-2-carbonyl]amino]-1-piperidyl]butanoic acid metabolite formation; assay type: ADME, cell-based, Sus scrofa, Hepatocyte
[5] = Photostability of the compound; assay type: physicochemical
[6] = Drug metabolism in dog hepatocytes assessed as (3R)-3-(hydroxymethyl)-4-oxo-4-[(3S)-3-[[5-[(1R,2S)-1-(p-tolyl)-2-[(2,2,2-trifluoroacetyl)amino]propoxy]pyridine-2-carbonyl]amino]-1-piperidyl]butanoic acid metabolite formation; assay type: ADME, cell-based, Canis lupus familiaris, Hepatocyte
[7] = Drug metabolism in human hepatocytes assessed as (3R)-3-(hydroxymethyl)-4-oxo-4-[(3S)-3-[[5-[(1R,2S)-1-(p-tolyl)-2-[(2,2,2-trifluoroacetyl)amino]propoxy]pyridine-2-carbonyl]amino]-1-piperidyl]butanoic acid metabolite formation; assay type: ADME, cell-based, Hepatocyte
[8] = Drug metabolism in rat whole blood assessed as (3R)-3-(hydroxymethyl)-4-oxo-4-[(3S)-3-[[5-[(1R,2S)-1-(p-tolyl)-2-[(2,2,2-trifluoroacetyl)amino]propoxy]pyridine-2-carbonyl]amino]-1-piperidyl]butanoic acid metabolite formation; assay type: ADME, tissue-based
[9] = Drug metabolism in dog whole blood assessed as (3R)-3-(hydroxymethyl)-4-oxo-4-[(3S)-3-[[5-[(1R,2S)-1-(p-tolyl)-2-[(2,2,2-trifluoroacetyl)amino]propoxy]pyridine-2-carbonyl]amino]-1-piperidyl]butanoic acid metabolite formation; assay type: ADME, tissue-based, Canis lupus familiaris
[10] = Drug metabolism in human whole blood assessed as (3R)-3-(hydroxymethyl)-4-oxo-4-[(3S)-3-[[5-[(1R,2S)-1-(p-tolyl)-2-[(2,2,2-trifluoroacetyl)amino]propoxy]pyridine-2-carbonyl]amino]-1-piperidyl]butanoic acid metabolite formation; assay type: ADME, tissue-based
[11] = Chemical stability assessed as parent compound remaining at pH 5.5 and 37 degreeC measured after 16 hrs; assay type: physicochemical; details: buffer, read-out: Stabilty
[12] = Chemical stability assessed as parent compound remaining at pH 7 and 37 degreeC measured after 16 hrs; assay type: physicochemical; details: buffer, read-out: Stabilty
[13] = Drug metabolism in pig whole blood assessed as (3R)-3-(hydroxymethyl)-4-oxo-4-[(3S)-3-[[5-[(1R,2S)-1-(p-tolyl)-2-[(2,2,2-trifluoroacetyl)amino]propoxy]pyridine-2-carbonyl]amino]-1-piperidyl]butanoic acid metabolite formation; assay type: ADME, tissue-based, Sus scrofa
[14] = Drug metabolism in rat hepatocytes assessed as (3R)-3-(hydroxymethyl)-4-oxo-4-[(3S)-3-[[5-[(1R,2S)-1-(p-tolyl)-2-[(2,2,2-trifluoroacetyl)amino]propoxy]pyridine-2-carbonyl]amino]-1-piperidyl]butanoic acid metabolite formation; assay type: ADME, cell-based, Hepatocyte
Homo sapiens [15] = organism: Homo sapiens; experiment: Selectivity ratio for agonist activity at progesterone receptor (unknown origin) to agonist activity at glucocorticoid receptor (unknown origin)
Cytochrome P450 = experiment: Inhibition of CYP450 (unknown origin); assay type: protein assay; details: human
Homo sapiens [16] = organism: Homo sapiens; experiment: Selectivity ratio for agonist activity at mineralocorticoid receptor (unknown origin) to agonist activity at glucocorticoid receptor (unknown origin)
[17] = Hepatic clearance in iv dosed rat; assay type: ADME, organism-based; details: in vivo
Homo sapiens [18] = organism: Homo sapiens; experiment: Selectivity ratio for agonist activity at androgen receptor (unknown origin) to agonist activity at glucocorticoid receptor (unknown origin)
[19] = molecular target: Voltage-gated inwardly rectifying potassium channel KCNH2 (Homo sapiens, UniProt Q12809); experiment: Inhibition of human ERG
Sequence of Voltage-gated inwardly rectifying potassium channel KCNH2 (Q12809 whole entry): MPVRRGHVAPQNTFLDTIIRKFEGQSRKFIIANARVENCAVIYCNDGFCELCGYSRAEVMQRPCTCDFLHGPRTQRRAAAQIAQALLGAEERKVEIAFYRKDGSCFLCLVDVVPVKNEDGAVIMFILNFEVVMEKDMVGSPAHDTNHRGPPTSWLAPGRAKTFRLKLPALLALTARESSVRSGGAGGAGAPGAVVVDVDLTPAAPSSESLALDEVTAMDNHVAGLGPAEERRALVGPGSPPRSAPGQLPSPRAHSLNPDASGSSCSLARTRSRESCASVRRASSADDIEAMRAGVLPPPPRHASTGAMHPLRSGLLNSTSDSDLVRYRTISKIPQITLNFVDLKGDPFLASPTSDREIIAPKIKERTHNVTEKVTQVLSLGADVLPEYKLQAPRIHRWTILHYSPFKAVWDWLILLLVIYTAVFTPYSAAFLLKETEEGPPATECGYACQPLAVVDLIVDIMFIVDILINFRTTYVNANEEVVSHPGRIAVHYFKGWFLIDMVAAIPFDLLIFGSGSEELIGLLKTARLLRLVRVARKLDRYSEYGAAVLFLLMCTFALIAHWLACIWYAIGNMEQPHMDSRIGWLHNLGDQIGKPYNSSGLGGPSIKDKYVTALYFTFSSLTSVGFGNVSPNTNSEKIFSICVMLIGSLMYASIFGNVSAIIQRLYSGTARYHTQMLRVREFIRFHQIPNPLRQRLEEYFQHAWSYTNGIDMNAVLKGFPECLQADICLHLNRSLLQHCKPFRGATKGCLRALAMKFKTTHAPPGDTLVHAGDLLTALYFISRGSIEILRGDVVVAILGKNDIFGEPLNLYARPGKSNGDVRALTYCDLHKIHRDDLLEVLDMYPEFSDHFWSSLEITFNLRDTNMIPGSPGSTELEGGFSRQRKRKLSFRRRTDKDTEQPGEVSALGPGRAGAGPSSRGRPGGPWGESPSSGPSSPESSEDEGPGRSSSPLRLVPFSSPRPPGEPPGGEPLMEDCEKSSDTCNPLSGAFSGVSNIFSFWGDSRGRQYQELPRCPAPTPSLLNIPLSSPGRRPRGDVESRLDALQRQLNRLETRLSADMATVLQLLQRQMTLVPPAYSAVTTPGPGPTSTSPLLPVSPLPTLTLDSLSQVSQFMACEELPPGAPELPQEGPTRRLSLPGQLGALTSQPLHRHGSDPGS

Cc1ccc([C@@H](Oc2ccc(C(=O)N[C@H]3CCCN(C(=O)[C@@H]4CCC(=O)O4)C3)nc2)[C@H](C)NC(=O)C(F)(F)F)cc1
half-life [1]: 1.38 h

Cc1ccc([C@@H](Oc2ccc(C(=O)N[C@@H]3CCCN(C(=O)[C@H]4CCC(=O)O4)C3)nc2)[C@H](C)NC(=O)C(F)(F)F)cc1
half-life [1]: 0.85 h

Cc1ccc([C@@H](Oc2ccc(C(=O)Nc3ccccc3)nc2)[C@H](C)NC(=O)C(F)(F)F)cc1
IC50 (Glucocorticoid receptor): 26 nM

Cc1ccc([C@@H](Oc2ccc3c(cnn3-c3ccc(F)cc3)c2)[C@H](C)NC(=O)C(F)(F)F)cc1
IC50 (Glucocorticoid receptor): 2 nM

Cc1ccc([C@@H](Oc2ccc(C(=O)N[C@@H]3CCCN(C(=O)[C@H]4COC(=O)C4)C3)nc2)[C@H](C)NC(=O)C(F)(F)F)cc1
half-life [2]: > 6 h | half-life [1]: < 0.167 h

Cc1ccc([C@@H](Oc2ccc(C(=O)N[C@@H]3CCCN(C(=O)[C@@H]4CCC(=O)O4)C3)nc2)[C@H](C)NC(=O)C(F)(F)F)cc1
half-life [1]: 0.733 h

Cc1ccc([C@@H](Oc2ccc(C(=O)N[C@H]3CCCN(C(=O)[C@H]4CCC(=O)O4)C3)nc2)[C@H](C)NC(=O)C(F)(F)F)cc1
half-life [2]: > 6 h | half-life [1]: > 2 h

C[C@H](NC(=O)[C@@H]1CCCO1)[C@H](Oc1ccc(C(=O)O[C@H]2CCCN(C(=O)[C@H]3COC(=O)C3)C2)cc1)c1ccc(C2CC2)cc1
IC50 (Glucocorticoid receptor): 22 nM

Cc1ccc([C@@H](Oc2ccc(C(=O)N[C@@H]3CCCN(C(=O)[C@@H]4COC(=O)C4)C3)nc2)[C@H](C)NC(=O)C(F)(F)F)cc1
half-life [1]: 0.283 h

C[C@H](NC(=O)[C@H]1CCCO1)[C@H](Oc1ccc(C(=O)O[C@H]2CCCN(C(=O)[C@@H](CO)CC(=O)O)C2)cc1)c1ccc(C2CC2)cc1
fold change (FC) [3]: > 100

C[C@H](NC(=O)C(F)(F)F)[C@H](Oc1ccc(C(=O)O[C@H]2CCCN(C(=O)[C@H]3COC(=O)C3)C2)cc1)c1ccc(C2CC2)cc1
IC50 (Glucocorticoid receptor): 1 nM

Cc1ccc([C@@H](Oc2ccc(C(=O)N[C@H]3CCCN(C(=O)[C@H]4COC(=O)C4)C3)nc2)[C@H](C)NC(=O)C(F)(F)F)cc1
Drug metabolism [4]: Metabolite_Detected | Stabilty [5]: Stable | half-life [2]: > 6 h | Drug metabolism [6]: Metabolite_Detected | Drug metabolism [7]: Metabolite_Detected | half-life [1]: < 0.167 h | Drug metabolism [8]: Metabolite_Detected | Drug metabolism [9]: Metabolite_Detected | Drug metabolism [10]: Metabolite_Detected | remaining at 16 h [11]: > 95% | remaining at 16 h [12]: 82% | Drug metabolism [13]: Metabolite_Detected | Drug metabolism [14]: Metabolite_Detected

Cc1ccc([C@@H](Oc2ccc(C(=O)N[C@H]3CCCN(C(=O)[C@@H]4COC(=O)C4)C3)nc2)[C@H](C)NC(=O)C(F)(F)F)cc1
half-life [2]: > 6 h | half-life [1]: 1.7 h

Cc1ccc([C@@H](Oc2ccc(C(=O)N[C@H]3CCCN(C(=O)[C@H]4COC(=O)C4)C3)cc2)[C@H](C)NC(=O)C(F)(F)F)cc1
IC50 (Glucocorticoid receptor): 79 nM

C[C@H](NC(=O)[C@H]1CCCO1)[C@H](Oc1ccc(C(=O)O[C@H]2CCCN(C(=O)[C@H]3COC(=O)C3)C2)cc1)c1ccc(C2CC2)cc1
Selectivity ratio (Homo sapiens [15]): > 100 | inhibition (INH) (Cytochrome P450): Not Active | Selectivity ratio (Homo sapiens [16]): > 100 | CLH [17]: 500 mL/min/kg | Selectivity ratio (Homo sapiens [18]): > 100 | inhibition (INH) [19]: Not Active | IC50 (Glucocorticoid receptor): 2 nM
